The text below walks through data of patent US4968494A, “Methods and compositions for thrombolytic therapy” (Merck & Co., Inc., priority 1990, dated 1990).

The target of test [1] is T1, Factor XIIIa (Homo sapiens, UniProt P00488).
T1 construct: from tissue; host or cells: human plasma
T1 sequence (P00488 39-732 limits assumed): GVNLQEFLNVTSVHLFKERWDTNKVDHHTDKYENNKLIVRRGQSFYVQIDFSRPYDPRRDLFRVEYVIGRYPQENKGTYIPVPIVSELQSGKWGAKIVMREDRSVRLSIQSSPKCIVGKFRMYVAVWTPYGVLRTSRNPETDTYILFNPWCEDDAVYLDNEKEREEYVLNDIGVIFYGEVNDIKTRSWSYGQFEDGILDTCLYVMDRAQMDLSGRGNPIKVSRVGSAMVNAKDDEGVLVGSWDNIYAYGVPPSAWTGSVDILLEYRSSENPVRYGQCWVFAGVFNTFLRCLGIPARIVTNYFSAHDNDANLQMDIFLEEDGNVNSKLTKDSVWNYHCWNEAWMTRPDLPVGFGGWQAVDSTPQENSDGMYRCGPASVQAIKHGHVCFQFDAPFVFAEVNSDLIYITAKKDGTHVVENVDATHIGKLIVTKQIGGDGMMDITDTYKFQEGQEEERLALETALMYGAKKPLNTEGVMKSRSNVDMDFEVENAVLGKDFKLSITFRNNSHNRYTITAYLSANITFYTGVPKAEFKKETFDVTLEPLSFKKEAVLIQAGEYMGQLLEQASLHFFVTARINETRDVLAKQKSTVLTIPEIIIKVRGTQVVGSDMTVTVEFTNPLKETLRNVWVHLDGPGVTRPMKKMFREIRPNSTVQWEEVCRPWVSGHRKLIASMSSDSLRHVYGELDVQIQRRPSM
Nature of the test: Factor XIIIa inhibitor assay (incorporation of ^14 C-putrescine into casein catalyzed by Factor XIIIa). In kind it is biochemical. The settings on record: read-out: Percent Inhibition. On the procedure:
The Factor XIIIa inhibitor assay is based on the incorporation of ^14 C-putrescine into casein catalyzed by Factor XIIIa. The assay is carried out employing the procedure described in Methods in Enzymology, Vol. 45, Ch 15., pages 177-191 (1976) and using Factor XIII (F XIII) isolated from human plasma. The procedure is summarized briefly and schematically illustrated as follows: [drawing 16]
Factor XIII assay mixtures are prepared by adding stepwise, appropriate prepared solutions of thrombin and dithiothreitol (DTT) to a mixture comprising Factor XIII in glycerol/water and tris(hydroxymethyl)aminomethane hydrochloride (Tris.cndot.HCl). To a portion of the mixture is added calcium chloride as source of calcium ions required for enzyme activity and to the remaining mixture is added instead of calcium ions ethylenediaminetetracetic acid (EDTA) which serves as a blank for background.
A substrate mixture is prepared from ^14 C-putrescine and […].
The assay tubes and control tubes are charged with the substrate mixture and incubated at 37° C. for 220 minutes. Samples are withdrawn from each tube, spotted onto a filter disk which is then immersed in ice cold trichloroacetic acid solution to precipitate the casein on the filter. The filter is then washed to remove unincorporated or free ^14 C-putrescine and after drying is counted for ^14 C-putrescine incorporated to casein from which percent activity and/or inhibition can be calculated.

In test [2] the test system is blood clots. Kind of test: in vitro clot lysis assay (TPA-catalyzed lysis of ^125 I-fibrin labelled clot). In kind it is biochemical. The settings on record: 200 μM cerulenin, buffer pH 7.5. On the procedure: In the assay, whole blood or plasma is charged with ^125 I-fibrinogen. Thrombin is added to initiate clot formation and subsequently incubated for 2 hours to complete the cross-linking by endogenous Factor XIII. Factor XIIIa inhibitor is added prior to clot initiation or at various times during the 2-hour incubation. At the end of this period, the labelled clot is washed and lysis is initiated by exogenous tissue plasminogen activator (TPA). Exogenous plasminogen is employed in some experiments. Endogenous plasminogen is used for others. Clot dissolution as a function of time is monitored by the release of solubilized ^125 I-fibrin-derived fragments.
In FIGS. 1 and 2, the open symbols indicate absence of cerulenin and the closed symbols indicate the presence of 200μM cerulenin at the time of clot formation. Clot lysis is conducted in buffer, pH 7.5; 5 ng/mL TPA represents approximate physiologic concentration. 50 to […] represents pharmacologic concentration range. […] FIG. 2 studies employed glu-plasminogen levels at approximately 10 percent physiologic level (12μ/mL)

The term inhibition denotes the percentage by which the read-out fell short of the control. Turning to `O=C(O)C=Cc1nc2ccccc2[nH]1` [3-(Benzimidazol-2-yl)-acrylic acid, 3-(benzimidazol-2-yl)acrylic acid], the inhibition at 13 µM in test [1] (1.3 × 10^-5 M) amounted to 91%. Moreover, the inhibition at 1.5 µM in test [1] (1.5 × 10^-6 M) was determined as 52%. The inhibition at 0.17 µM in test [1] (1.7 × 10^-7 M) came out at 9%. Further, the inhibition at 4.5 µM in test [1] (4.5 × 10^-6 M) is 78%. Also, in test [1] (5 × 10^-7 M), the inhibition at 0.5 µM came out at 19%.

`C/C=C/C/C=C/CCC(=O)[C@H]1O[C@H]1C(N)=O` [Cerulenin, (2R,3S)-2,3-epoxy-4-oxo-7E,10E-dodecadienamide]: the lysis rates result in test [2] (12 μg/mL exogenous glu-plasminogen, TPA, FIG. 2) was “lysis rates were further enhanced”. Also, the “rates and extents of lysis” value in test [2] (no exogenous plasminogen, physiological and pharmacological levels of TPA, FIG. 1) was “enhanced rates and extents of lysis”. Moreover, the inhibition at 62 µM in test [1] (6.2 × 10^-5 M) came to 100%. Moreover, the inhibition at 6.2 µM in test [1] (6.2 × 10^-6 M) amounted to 64%. Besides, in test [1] (6.2 × 10^-7 M), the inhibition at 0.62 µM is 22%.
